Tests used:
[1] = test system: standard and "wild" strains of M. tuberculosis; experiment: Tuberculostatic activity, all M. tuberculosis strains (overall); format: cell-based; settings: Mycobacterium tuberculosis, H37RV, read-out: MIC (over M. tuberculosis strains)
[2] = test system: M. tuberculosis standard H37Rv strain; experiment: Tuberculostatic activity, test-tube dilution; format: cell-based; settings: Mycobacterium tuberculosis, read-out: MIC M. tuberculosis Standard H37Rv Strain
LoVo/dx = experiment: Antiproliferative SRB assay, LoVo/dx; format: cell-based, human
Description: (§1) Four human cancer cell lines and one normal cell line were used to evaluate anticancer activity of SAL and its N-benzyl amides: human acute promyelocytic leukemia (HL-60) and its vincristine resistant subline (HL-60/vinc), human colon adenocarcinoma cell lines sensitive (LoVo) and resistant to doxorubicin (LoVo/dx) as well as also normal murine embryonic fibroblast cell line (BALB/3T3). The BALB/3T3 cell line was purchased from the American Type Culture Collection (ATCC Rockville, MD, USA), HL-60 cell line from European Type Culture Collection by courtesy of Professor Spik and Dr Mazurier (Laboratory of Biological Chemistry USTL, Lille, France) and HL-60/vinc, LoVo and LoVo/dx by courtesy of Prof. E. Borowski (Technical University of Gdańsk, Gdańsk, Poland). All the cell lines are maintained in the Institute of Immunology and Experimental Therapy (IIET), Wrocław, Poland.
(§2) Human leukemia cells were cultured in ISCOVE medium (IIET, Wroclaw, Polond) containing 10% fetal bovine serum and 2 mM L-glutamine (Sigma Aldrich) and 1 µg/100 mL […] for HL-60/vinc (Sigma Aldrich). Human colon adenocarcinoma cell lines were cultured in mixture of OptiMEM and RPMI 1640 (1:1) medium (IIET) supplemented with 5% fetal bovine serum (Thermo Fisher Scientific, Waltham, MA, USA), 2 mM L-glutamine, 1 mM sodium pyruvate (Sigma Aldrich) and 10 µg/100 mL doxorubicin for LoVo/dx (Sigma Aldrich). Murine embryonic fibroblast cells were cultured in Dulbecco medium (Gibco, Darmstadt, Germany) supplemented with 10% fetal bovine serum (Thermo Fisher Scientific) and 2 mM L-glutamine (Sigma Aldrich). All culture media contained antibiotics: 100 U/mL penicillin (Sigma Aldrich) and 100 µg/mL streptomycin (Polfa-Tarchomin, City, Poland). All cell lines were cultured during entire experiment in humid atmosphere at 37 °C and 5% CO2.
(§3) Twenty four hours before adding the tested compounds all cell lines were seeded in 96-well plates (Sarstedt, Nümbrecht, Germany) in appropriate media with 10^4 cells per well. All cell lines were exposed to each tested agent at four different concentrations from the range 100 to 0.1 µg/mL for 72 h. The cells were also exposed to the reference drugs: cisplatin (Accord, London, UK) and doxorubicin hydrochloride (Fluka, St. Louis, MO, USA). Additionally, all cell lines were exposed to DMSO (the solvent used for tested compounds, Sigma Aldrich) at the concentrations corresponding to those in the tested agent dilutions. For adherent cells sulphorodamine B assay was performed and MTT assay for leukemia cells.
(§4) After 72 h of incubation with tested compounds the cells were fixed in situ by gently adding of 50 µL per well of cold 50% trichloroacetic acid TCA (Avantor Performance Materials, City, Poland) and were incubated at 4 °C for 1 h. Then the wells were washed four times with water and air-dried. Next, 50 µL of 0.2% solution of sulphorodamine B (Sigma Aldrich) in 1% acetic acid (Avantor Performance Materials) were added to each well and plates were incubated at room temperature for 0.5 h. After incubation time, unbound dye was removed by washing plates four times with 1% acetic acid, whereas the stain bound to cells was solubilized with 150 µL of 10 mM Tris base (Sigma Aldrich). Absorbance of each solution was read at Synergy H4 photometer (BioTek Instruments, Winooski, VT, USA) at 540 nm wavelength.
(§5) Results are presented as mean IC50 (concentration of the tested compound that inhibits cell proliferation by 50%) ± standard deviation. IC50 values were calculated in Cheburator 1.0.2, Dmitry Nevozhay software for each experiment. Compounds at each concentration were tested in triplicates in single experiment and each experiment was repeated at least three times independently. The IR was defined as the ratio of IC50 for a given compound calculated for resistant cell line to that measured for its parental drug sensitive cell line (Table 4).

[3] = test system: HL-60, HL-60/vinc, LoVo, LoVo/dx; experiment: Antiproliferative assays, all four cancer cell lines (range given); format: cell-based; settings: Homo sapiens; range over HL-60, HL-60/vinc, LoVo, LoVo/dx; read-out: IC50 (range over the cancer cell lines)
Description: as §1, §2, §3, §4
Proliferation inhibition of leukemia cells by tested compounds was measured by means of MTT assay. […]

[4] = test system: M. tuberculosis isoniazid-sensitive strain (spec. 192); experiment: Tuberculostatic activity, test-tube dilution; format: cell-based; settings: Mycobacterium tuberculosis, read-out: MIC M. tuberculosis Isoniazid-Sensitive Strain
LoVo = experiment: Antiproliferative SRB assay, LoVo; format: cell-based, human
Description: as §1, §2, §3, §4, §5

HL-60/vinc = experiment: Antiproliferative MTT assay, HL-60/vinc; format: cell-based, human
Description: as §1, §2, §3
(§6) Proliferation inhibition of leukemia cells by tested compounds was measured by means of MTT assay. Thus, 20 µL of 3-(4,5-dimethylthiazol-2-yl)-2,5-diphenyl tetrazolium bromide solution (Sigma Aldrich) were added to each well and plates were left in cell incubator for 4 h to allow the cells to metabolize yellow MTT to blue formazan. Then, the lysing mixture consisting of 225 mL dimethylformamide, 67.5 g sodium dodecyl sulfate (both from Sigma Aldrich) and 275 mL of distilled water was added in 80 µL volume per well. Plates were incubated for 24 h for the formazan crystals to be released from cells, dissolved and then absorbance of each well was read at Synergy H4 photometer (BioTek Instruments) at 570 nm wavelength.
as §5

HL-60 = experiment: Antiproliferative MTT assay, HL-60; format: cell-based, human
Description: as §1, §2, §3, §6, §5

`CC[C@H](C(=O)NCc1ccccc1Br)C1CC[C@H](C)C([C@@H](C)[C@H](O)[C@H](C)C(=O)[C@H](CC)C2O[C@]3(C=C[C@@H](O)C4(CC[C@@](C)(C5CC[C@](O)(CC)[C@H](C)O5)O4)O3)[C@H](C)C[C@@H]2C)O1` (some centres unmarked) [Br-o] was tested, and the MIC [1] was > 100 µg/mL, the MIC [2] was > 100 µg/mL and the IC50 (LoVo/dx; Homo sapiens, LoVo/DX, 72 h, read-out: IC50 LoVo/dx) was 2.87 ± 0.29 µM. The “IR LoVo/DX” value (LoVo/dx; IR = IC50 LoVo/dx / IC50 LoVo) was 0.79, the “SI LoVo/DX” value (LoVo/dx; SI = IC50 BALB/3T3 / IC50 LoVo/dx) was 2.27 and the IC50 [3] was 2.32 to 6.84 µM. The MIC [4] was > 100 µg/mL, the IC50 (LoVo; Homo sapiens, LoVo, 72 h, SRB, mean ± SD, read-out: IC50 LoVo) was 3.64 ± 0.07 µM and the “SI LoVo” value (LoVo; SI = IC50 BALB/3T3 / IC50 LoVo) was 1.79. The IC50 (HL-60/vinc; Homo sapiens, HL60/vinc, 72 h, read-out: IC50 HL-60/vinc) was 4.8 ± 1.48 µM, the “IR HL-60/vinc” value (HL-60/vinc; IR = IC50 HL-60/vinc / IC50 HL-60) was 1.53 and the “SI HL-60/vinc” value (HL-60/vinc; SI = IC50 BALB/3T3 / IC50 HL-60/vinc) was 1.36. The IC50 (HL-60; Homo sapiens, HL-60, 72 h, MTT, mean ± SD, NA: not active in concentrations used (up to 100 µg/mL), read-out: IC50 HL-60) was 3.13 ± 0.71 µM and the “SI HL-60” value (HL-60; SI = IC50 BALB/3T3 / IC50 HL-60) was 2.08.
